According to US20170074857A1, “MEDICATION ADHERENCE MONITORING DEVICE” (UNIVERSITY OF FLORIDA RESEARCH FOUNDATION, INC., priority 2014, published 2017):

What was measured:
[1] = cited from earlier work
[2] = Example 4b: breath acetone and 2-butanone by Type 1 mGC after soft gel with 2-butanol and isopropyl alcohol; assay type: in vivo, human; conditions: 2-butanol (40 mg) and isopropyl alcohol (30 mg)
Experimental: Shown in Panel A of FIG. 76 is the 1st derivative mGC response (proportional to EDIM breath concentration) in a Type 1 SMART Device for acetone and 2-butanone as a function of breath sampling times post ingestion of the capsule.
Panel B depicts the change from baseline of the 1st derivative mGC response. Time 0 is baseline (immediately before capsule is ingested containing the two AEMs). […] Note how the 2-butanone levels in breath begin to fall after 20 min, whereas those of acetone slowly continue to rise over the study period.

CCC(C)=O [Formulation 2-butanone, 2-butanone]
blood elimination t1/2 ([1]; in vivo): 49 to 96 min
pulmonary uptake from air ([1]; inhalation exposure 100,000-200,000 ppb): 70%
half life in breath [2]: about 45 minutes
Tmax of breath marker ([2]; fasting subject): 20 min
